Activity calls are given as the source filed them. The calls are words filed in the database; no cut-off is given here.
Key:
HeLa [1] = experiment: Induction of cell cycle arrest in human HeLa cells assessed as accumulation at S phase at 1.8 uM incubated for 24 hrs by PI staining based flow cytometry (reference value: 17.84 +/- 1.89 %); assay type: functional
[2] = molecular target: Cyclin-dependent kinase 4/cyclin D1 (Homo sapiens, UniProt P11802); experiment: Inhibition of CDK4/cyclin D (unknown origin) using […] incubated for 40 mins in presence of ATP by Kinase-Glo assay; assay type: protein-complex assay
Sequence of Cyclin-dependent kinase 4/cyclin D1 (P11802 whole entry): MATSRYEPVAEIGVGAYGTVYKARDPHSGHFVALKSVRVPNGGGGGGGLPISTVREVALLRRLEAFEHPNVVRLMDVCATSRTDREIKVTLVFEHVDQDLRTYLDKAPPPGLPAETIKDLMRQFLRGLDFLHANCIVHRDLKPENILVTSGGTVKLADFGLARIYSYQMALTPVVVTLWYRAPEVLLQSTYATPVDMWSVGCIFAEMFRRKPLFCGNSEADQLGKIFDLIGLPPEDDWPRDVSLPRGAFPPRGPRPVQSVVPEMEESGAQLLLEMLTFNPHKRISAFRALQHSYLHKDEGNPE
Sequence of Cyclin-dependent kinase 4/cyclin D1 (P24385 whole entry, further chain): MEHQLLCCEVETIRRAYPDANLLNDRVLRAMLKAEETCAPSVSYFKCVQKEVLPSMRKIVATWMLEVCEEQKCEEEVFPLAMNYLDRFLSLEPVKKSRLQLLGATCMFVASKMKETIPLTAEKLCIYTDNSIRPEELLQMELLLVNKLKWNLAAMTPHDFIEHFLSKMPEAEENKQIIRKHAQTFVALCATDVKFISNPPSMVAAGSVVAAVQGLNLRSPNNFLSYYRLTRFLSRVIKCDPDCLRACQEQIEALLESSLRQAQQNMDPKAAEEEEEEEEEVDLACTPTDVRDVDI

C6 = experiment: Antitumor activity against rat C6 cells allografted in Sprague-Dawley rat at 70 mg/kg/day, po treated for 2 weeks relative to control; assay type: functional; settings: C6, 336 h, read-out: TGI
[3] = Cmax in Sprague-Dawley rat at 2 mg/kg, iv measured for 36 hrs by MRM analysis; assay type: ADME, organism-based; settings: in vivo
HepG2 = experiment: Antiproliferative activity against human HepG2 cells assessed as cell growth inhibition incubated for 48 hrs by MTT assay; assay type: functional, cell-based; settings: HepG2, 48 h
[4] = Inhibition of CDK6/cyclin D (unknown origin) using […] incubated for 40 mins in presence of ATP by Kinase-Glo assay; set-up: species or system Homo sapiens
HeLa [5] = experiment: Induction of apoptosis in human HeLa cells assessed as necrotic cells at 0.9 uM incubated for 24 hrs by PI staining based flow cytometry (reference value: 25.5 %); assay type: functional
HeLa [6] = experiment: Induction of cell cycle arrest in human HeLa cells assessed as accumulation at G2/M phase at 0.9 uM incubated for 24 hrs by PI staining based flow cytometry (reference value: 24.6 +/- 1.11 %); assay type: functional
[7] = AUC (0 to infinity) in Sprague-Dawley rat at 2 mg/kg, iv measured for 36 hrs by MRM analysis; assay type: ADME, organism-based; settings: in vivo
[8] = MRT (0 to t) in Sprague-Dawley rat at 2 mg/kg, iv measured for 36 hrs by MRM analysis; assay type: ADME, organism-based; settings: in vivo
[9] = AUC (0 to infinity) in Sprague-Dawley rat at 10 mg/kg, po measured for 36 hrs by MRM analysis; assay type: ADME, organism-based; settings: in vivo
HCT-116 [10] = experiment: Induction of cell cycle arrest in human HCT-116 cells assessed as accumulation at G1/G0 phase at 0.2 uM incubated for 24 hrs by PI staining based flow cytometry (reference value: 58.29 +/- 2.01 %); assay type: functional
[11] = molecular target: Cyclin-dependent kinase 5/CDK5 activator 1 (Homo sapiens, UniProt Q00535); experiment: Inhibition of CDK5/p35 (unknown origin) using […] incubated for 40 mins in presence of ATP by Kinase-Glo assay; assay type: protein-complex assay
Sequence of Cyclin-dependent kinase 5/CDK5 activator 1 (Q00535 whole entry): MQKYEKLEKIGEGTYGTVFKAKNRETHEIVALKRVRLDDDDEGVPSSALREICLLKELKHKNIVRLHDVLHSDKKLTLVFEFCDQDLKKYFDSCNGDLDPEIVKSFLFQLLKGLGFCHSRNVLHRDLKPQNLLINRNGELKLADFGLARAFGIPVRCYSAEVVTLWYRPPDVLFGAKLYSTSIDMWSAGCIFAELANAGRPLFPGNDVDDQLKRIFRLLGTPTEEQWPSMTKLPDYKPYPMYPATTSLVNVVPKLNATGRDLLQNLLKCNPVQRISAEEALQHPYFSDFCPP
Sequence of Cyclin-dependent kinase 5/CDK5 activator 1 (Q15078 whole entry, further chain): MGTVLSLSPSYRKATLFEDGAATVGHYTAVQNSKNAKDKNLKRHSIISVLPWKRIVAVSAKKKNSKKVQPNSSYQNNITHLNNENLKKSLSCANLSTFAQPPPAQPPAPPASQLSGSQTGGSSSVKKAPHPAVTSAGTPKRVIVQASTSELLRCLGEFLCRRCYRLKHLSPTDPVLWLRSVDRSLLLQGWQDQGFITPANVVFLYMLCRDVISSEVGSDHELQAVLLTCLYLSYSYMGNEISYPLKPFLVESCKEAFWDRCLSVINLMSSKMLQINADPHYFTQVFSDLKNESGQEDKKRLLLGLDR

HCT-116 [12] = experiment: Induction of cell cycle arrest in human HCT-116 cells assessed as accumulation at sub-G1 phase at 0.2 uM incubated for 24 hrs by PI staining based flow cytometry (reference value: 2.45 +/- 0.49 %); assay type: functional
HCT-116 [13] = experiment: Induction of apoptosis in human HCT-116 cells assessed as viable cells at 0.2 uM incubated for 24 hrs by PI staining based flow cytometry (reference value: 79.4 %); assay type: functional; settings: read-out: Activity
HeLa [14] = experiment: Induction of apoptosis in human HeLa cells assessed as increase in cleaved PARP level upto 3.6 uM incubated for 24 hrs by Western blot analysis; assay type: functional, cell-based
[15] = Oral bioavailability in Sprague-Dawley rat at 10 mg/kg measured for 36 hrs by MRM analysis; assay type: ADME, organism-based; settings: in vivo
[16] = Clearance in Sprague-Dawley rat at 10 mg/kg, po measured for 36 hrs by MRM analysis; assay type: ADME, organism-based; settings: in vivo
[17] = molecular target: Cyclin-dependent kinase 9 (Homo sapiens) (UniProt P50750); experiment: Inhibition of CDK9 in human HCT-116 cells assessed as reduction in Rpb1 phosphorylation at Ser2/5 incubated for 24 hr s by Western blot analysis; assay type: cell-based; settings: dose <= 0.8 µM
Sequence of Cyclin-dependent kinase 9 (Homo sapiens) (P50750 whole entry): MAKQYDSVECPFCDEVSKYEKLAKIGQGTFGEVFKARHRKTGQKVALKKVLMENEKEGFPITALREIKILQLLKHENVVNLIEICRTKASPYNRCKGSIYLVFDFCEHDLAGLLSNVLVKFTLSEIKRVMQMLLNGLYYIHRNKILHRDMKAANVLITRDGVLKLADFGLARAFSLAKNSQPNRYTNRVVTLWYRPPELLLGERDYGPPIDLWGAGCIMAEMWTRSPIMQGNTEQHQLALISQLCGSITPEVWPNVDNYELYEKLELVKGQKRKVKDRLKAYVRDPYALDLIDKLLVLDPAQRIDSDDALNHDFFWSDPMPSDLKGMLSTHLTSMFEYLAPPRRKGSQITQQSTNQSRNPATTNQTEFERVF

HeLa [18] = experiment: Induction of cell cycle arrest in human HeLa cells assessed as accumulation at G1/G0 phase at 1.8 uM incubated for 24 hrs by PI staining based flow cytometry (reference value: 57.63 +/- 1.7 %); assay type: functional
[19] = MRT (0 to infinity) in Sprague-Dawley rat at 2 mg/kg, iv measured for 36 hrs by MRM analysis; assay type: ADME, organism-based; settings: in vivo
A549 = experiment: Antiproliferative activity against human A549 cells assessed as cell growth inhibition incubated for 48 hrs by MTT assay; assay type: functional, cell-based; settings: A549, 48 h
HCT-116 [20] = experiment: Induction of cell cycle arrest in human HCT-116 cells assessed as accumulation at sub-G1 phase at 0.4 uM incubated for 24 hrs by PI staining based flow cytometry (reference value: 2.45 +/- 0.49 %); assay type: functional
[21] = Inhibition of CDK1/cyclin B (unknown origin) using […] incubated for 40 mins in presence of ATP by Kinase-Glo assay; set-up: species or system Homo sapiens
HeLa [22] = experiment: Induction of cell cycle arrest in human HeLa cells assessed as accumulation at S phase at 0.9 uM incubated for 24 hrs by PI staining based flow cytometry (reference value: 17.84 +/- 1.89 %); assay type: functional
[23] = Inhibition of CDK9/cyclin T (unknown origin) using […] incubated for 40 mins in presence of ATP by Kinase-Glo assay; set-up: species or system Homo sapiens
HCT-116 [24] = experiment: Induction of apoptosis in human HCT-116 cells assessed as early apoptotic cells at 0.2 uM incubated for 24 hrs by PI staining based flow cytometry (reference value: 0.19 %); assay type: functional
HCT-116 [25] = experiment: Induction of apoptosis in human HCT-116 cells assessed as early apoptotic cells at 0.4 uM incubated for 24 hrs by PI staining based flow cytometry (reference value: 0.19 %); assay type: functional
HeLa [26] = experiment: Antiproliferative activity against human HeLa cells assessed as cell growth inhibition incubated for 48 hrs by MTT assay; assay type: functional, cell-based
HCT-116 [27] = experiment: Induction of apoptosis in human HCT-116 cells assessed as increase in cleaved PARP level upto 0.8 uM incubated for 24 hrs by Western blot analysis; assay type: functional, cell-based
HeLa [28] = experiment: Induction of cell cycle arrest in human HeLa cells assessed as accumulation at G2/M phase at 3.6 uM incubated for 24 hrs by PI staining based flow cytometry (reference value: 24.6 +/- 1.11 %); assay type: functional
HeLa [29] = experiment: Induction of apoptosis in human HeLa cells assessed as late apoptotic cells at 1.8 uM incubated for 24 hrs by PI staining based flow cytometry (reference value: 3.85 %); assay type: functional
HeLa [30] = experiment: Induction of apoptosis in human HeLa cells assessed as viable cells at 3.6 uM incubated for 24 hrs by PI staining based flow cytometry (reference value: 68.9 %); assay type: functional; settings: read-out: Activity
HeLa [31] = experiment: Induction of cell cycle arrest in human HeLa cells assessed as accumulation at G1/G0 phase at 3.6 uM incubated for 24 hrs by PI staining based flow cytometry (reference value: 57.63 +/- 1.7 %); assay type: functional
[32] = MRT (0 to t) in Sprague-Dawley rat at 10 mg/kg, po measured for 36 hrs by MRM analysis; assay type: ADME, organism-based; settings: in vivo
HCT-116 [33] = experiment: Induction of apoptosis in human HCT-116 cells assessed as necrotic cells at 0.2 uM incubated for 24 hrs by PI staining based flow cytometry (reference value: 18.9 %); assay type: functional
HCT-116 [34] = experiment: Cytotoxicity against human HCT-116 cells assessed as cell growth inhibition incubated for 48 hrs by MTT assay; assay type: functional, cell-based; settings: HCT-116, 48 h

## Cc1cnc(Nc2ccc(S(N)(=O)=O)cc2)nc1Nc1nccs1
HeLa [1]
  Activity: 16.79%
[2]
  IC50: 942 nM
C6
  inhibition in vivo at 70 mg/kg/day: 86%
[3]
  Cmax: 29.1 ng/mL
HepG2
  IC50: 2090 nM
[4]
  IC50: 3250 nM
HeLa [5]
  Activity: 0.81%
HeLa [6]
  Activity: 26.41%
[7]
  AUC(0-inf): 33.7 ng·h/mL
[8]
  MRT last at 36 h: 2.7 h
[9]
  AUC(0-inf): 146 ng·h/mL
HCT-116 [10]
  Activity: 51.83%
[11]
  IC50: 119 nM
HCT-116 [12]
  Activity: 0.56%
HCT-116 [13]
  viability at 0.2 µM: 63.1%
HeLa [14]
  Activity: Active
[15]
  bioavailability: 86.7%
[16]
  CL/F: 1180 mL/min/kg
[17]
  inhibition: Dose-dependent-effect
HeLa [18]
  Activity: 50.55%
[19]
  MRT inf: 2.8 h
A549
  IC50: > 30000 nM
HCT-116 [20]
  Activity: 1.91%
[21]
  IC50: 53 nM
HeLa [22]
  Activity: 21.67%
[23]
  IC50: 9 nM
HCT-116 [24]
  Activity: 2%
HCT-116 [25]
  Activity: 17.9%
HeLa [26]
  IC50: 1840 nM
HCT-116 [27]
  Activity: Active
HeLa [28]
  Activity: 44.19%
HeLa [29]
  Activity: 25.9%
HeLa [30]
  viability at 3.6 µM: 11.7%
HeLa [31]
  Activity: 39.16%
[32]
  MRT last at 36 h: 6.5 h
HCT-116 [33]
  Activity: 3.6%
HCT-116 [34]
  IC50: 462 nM
